Measured values from US20240366567A1, “PHARMACEUTICAL COMBINATIONS COMPRISING A KRAS G12C INHIBITOR AND USES THEREOF FOR THE TREATMENT OF CANCERS” (NOVARTIS AG, priority 2021, published 2024).

Key:
KRAS G12C = biological target: T1, KRAS G12C (Homo sapiens, UniProt P01116, G12C); experiment: PK/PD modeling of target occupancy in patients
T1 construct: from tissue; host or cells: patients' KRAS G12C-mutated tumours (model prediction, nothing measured on protein)
Method: FIG. 15: PK and target occupancy profiles of JDQ443 RD 200 mg BID. […] Error bars indicate standard deviation for PK profile at each timepoint.

patients = experiment: KontRASt-01 (NCT04699188) phase Ib, safety and tolerability; type: in vivo, human
Method: The study is conducted to evaluate the antitumor efficacy, safety and tolerability of JDQ443 as a single agent and JDQ443 in combination with other agents.

[1] = test system: Ba/F3 cells expressing GFP-tagged KRASG12C H95Q; experiment: Ba/F3 viability, CellTiter-Glo, 72 hours (Example 3); type: cell-based, murine
[2] = KontRASt-01 (NCT04699188) clinical pharmacokinetics; type: in vivo; conditions: human, plasma, oral, Case 2, JDQ443 200 mg QD continuously + TNO155 20 mg QD 2 wk on/1 wk off, JDQ443 exposure
[3] = test system: KRAS G12C, PIK3CA and CDKN2A-mutated LU99 xenograft; experiment: LU99 xenograft, single agent and double, triple, quadruple combinations (Example 8); type: in vivo, mice; conditions: daily dosing 100 mg/kg
[4] = test system: human KRAS G12C-mutated CRC PDX models; experiment: CRC patient-derived xenograft (PDX) panel; type: in vivo, nude mice; conditions: Compound A alone, 100 mg/kg QD oral
Method: The antitumor efficacy of JDQ443±inhibitors of RAS-upstream or RAS-downstream signaling was evaluated in PDX panels of human KRAS G12C-mutated NSCLC and CRC.
Patient-derived xenograft (PDX) models of human NSCLC and CRC were established by direct implantation of patient NSCLC or CRC tumor tissue subcutaneously into nude mice. PDX models were maintained through in vivo serial passaging.
A cohort of mice was implanted subcutaneously with tumor fragments from each PDX model (typically passages 4-9). Ten NSCLC and nine CRC PDX models were used. Each model is named with a code, e.g. 30580-HX, 30581-HX etc, for identification and tracking purposes. Individual mice were assigned to treatment groups or control groups for dosing once their tumor volume reached 200-250 mm^3 (T=0, on the x-axis of the spider plots). One animal per PDX model was assigned to each treatment arm. Once enrolled into treatment arms, tumor volumes were measured twice weekly by caliper, and tumor volume was estimated in […] using the formula: Length×Width^2/2. The end of study per model was defined as minimum of 28 days treatment, or duration for untreated tumor to reach 1500 mm^3, or duration for 2 doublings of untreated tumor, whichever was slower.
The Raf inhibitor (LXH254 (naporafenib)) was formulated as a suspension. […]

T1 sequence (P01116 1-188 isoform P01116-2 G12C): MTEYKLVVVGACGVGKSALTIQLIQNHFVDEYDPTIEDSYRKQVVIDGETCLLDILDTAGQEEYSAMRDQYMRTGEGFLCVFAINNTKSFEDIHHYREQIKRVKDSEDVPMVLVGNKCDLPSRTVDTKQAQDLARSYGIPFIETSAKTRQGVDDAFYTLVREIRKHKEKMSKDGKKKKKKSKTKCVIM

SMILES: C=CC(=O)N1CC2(CC(n3nc(-c4ccc5c(cnn5C)c4)c(-c4c(Cl)c(C)cc5[nH]ncc45)c3C)C2)C1 (single isomer, unassigned) [Compound A, 1-{6-[(4M)-4-(5-Chloro-6-methyl-1H-indazol-4-yl)-5-methyl-3-(1-methyl-1H-indazol-5-yl)-1H-pyrazol-1-yl]-2-azaspiro[3.3]heptan-2-yl}prop-2-en-1-one]
- predicted target occupancy in patients (KRAS G12C; 200 mg BID, in >82% patients, patient PK and preclinical target occupancy models): > 90%
- predicted target occupancy (KRAS G12C; recommended dose of 200 mg BID, PD/PK modeling): sustained, high-level target occupancy
- Grade 4-5 TRAEs (patients; 39 patients, all doses): no Grade 4-5 TRAEs
- patients with Grade 3 TRAEs (patients; 39 patients, all doses): 4 pts
- tolerability (patients; 39 patients, 200 mg QD, 400 mg QD, 200 mg BID or 300 mg BID): generally well tolerated
- ALT increased (adverse event), All grades (patients; JDQ443 200 mg BID (n = 11)): 0 n
- ALT increased (adverse event), Grade ≥3 (patients; JDQ443 200 mg BID (n = 11)): 0 n
- AST increased (adverse event), All grades (patients; JDQ443 200 mg BID (n = 11)): 0 n
- AST increased (adverse event), Grade ≥3 (patients; JDQ443 200 mg BID (n = 11)): 0 n
- Alopecia (adverse event), All grades (patients; JDQ443 200 mg BID (n = 11)): 0 n
- Alopecia (adverse event), Grade ≥3 (patients; JDQ443 200 mg BID (n = 11)): 0 n
- Arthralgia (adverse event), Grade ≥3 (patients; JDQ443 200 mg BID (n = 11)): 0 n
- Decreased appetite (adverse event), Grade ≥3 (patients; JDQ443 200 mg BID (n = 11)): 0 n
- Diarrhea (adverse event), Grade ≥3 (patients; JDQ443 200 mg BID (n = 11)): 0 n
- Dizziness (adverse event), Grade ≥3 (patients; JDQ443 200 mg BID (n = 11)): 0 n
- Dry mouth (adverse event), All grades (patients; JDQ443 200 mg BID (n = 11)): 0 n
- Dry mouth (adverse event), Grade ≥3 (patients; JDQ443 200 mg BID (n = 11)): 0 n
- Dry skin (adverse event), All grades (patients; JDQ443 200 mg BID (n = 11)): 0 n
- Dry skin (adverse event), Grade ≥3 (patients; JDQ443 200 mg BID (n = 11)): 0 n
- ECG QT prolonged (adverse event), All grades (patients; JDQ443 200 mg BID (n = 11)): 0 n
- ECG QT prolonged (adverse event), Grade ≥3 (patients; JDQ443 200 mg BID (n = 11)): 0 n
- Edema (adverse event), Grade ≥3 (patients; JDQ443 200 mg BID (n = 11)): 0 n
- Fatigue (adverse event), Grade ≥3 (patients; JDQ443 200 mg BID (n = 11)): 0 n
- Headache (adverse event), All grades (patients; JDQ443 200 mg BID (n = 11)): 0 n
- Headache (adverse event), Grade ≥3 (patients; JDQ443 200 mg BID (n = 11)): 0 n
- Lipase increased (adverse event), Grade ≥3 (patients; JDQ443 200 mg BID (n = 11)): 0 n
- Musculoskeletal stiffness (adverse event), All grades (patients; JDQ443 200 mg BID (n = 11)): 0 n
- Musculoskeletal stiffness (adverse event), Grade ≥3 (patients; JDQ443 200 mg BID (n = 11)): 0 n
- Nausea (adverse event), Grade ≥3 (patients; JDQ443 200 mg BID (n = 11)): 0 n
- Neuropathy peripheral (adverse event), All grades (patients; JDQ443 200 mg BID (n = 11)): 0 n
- Neuropathy peripheral (adverse event), Grade ≥3 (patients; JDQ443 200 mg BID (n = 11)): 0 n
- Neutropenia (adverse event), All grades (patients; JDQ443 200 mg BID (n = 11)): 0 n
- Neutropenia (adverse event), Grade ≥3 (patients; JDQ443 200 mg BID (n = 11)): 0 n
- Number of patients with at least one event, Grade ≥3 (patients; JDQ443 200 mg BID (n = 11)): 0 n
- Photosensitivity reaction (adverse event), All grades (patients; JDQ443 200 mg BID (n = 11)): 0 n
- Photosensitivity reaction (adverse event), Grade ≥3 (patients; JDQ443 200 mg BID (n = 11)): 0 n
- Pruritus (adverse event), Grade ≥3 (patients; JDQ443 200 mg BID (n = 11)): 0 n
- Rash (maculopapular) (adverse event), Grade ≥3 (patients; JDQ443 200 mg BID (n = 11)): 0 n
- Rash (pustular) (adverse event), All grades (patients; JDQ443 200 mg BID (n = 11)): 0 n
- Rash (pustular) (adverse event), Grade ≥3 (patients; JDQ443 200 mg BID (n = 11)): 0 n
- Vomiting (adverse event), Grade ≥3 (patients; JDQ443 200 mg BID (n = 11)): 0 n
- ALT increased (adverse event), Grade ≥3 (patients; JDQ443 all patients (N = 39)): 0 n
- AST increased (adverse event), Grade ≥3 (patients; JDQ443 all patients (N = 39)): 0 n
- Alopecia (adverse event), Grade ≥3 (patients; JDQ443 all patients (N = 39)): 0 n
- Arthralgia (adverse event), Grade ≥3 (patients; JDQ443 all patients (N = 39)): 0 n
- Decreased appetite (adverse event), Grade ≥3 (patients; JDQ443 all patients (N = 39)): 0 n
- Diarrhea (adverse event), All grades (patients; JDQ443 all patients (N = 39)): 5 n
- Diarrhea (adverse event), Grade ≥3 (patients; JDQ443 all patients (N = 39)): 0 n
- Dizziness (adverse event), Grade ≥3 (patients; JDQ443 all patients (N = 39)): 0 n
- Dry mouth (adverse event), Grade ≥3 (patients; JDQ443 all patients (N = 39)): 0 n
- Dry skin (adverse event), Grade ≥3 (patients; JDQ443 all patients (N = 39)): 0 n
- ECG QT prolonged (adverse event), Grade ≥3 (patients; JDQ443 all patients (N = 39)): 0 n
- Edema (adverse event), Grade ≥3 (patients; JDQ443 all patients (N = 39)): 0 n
- Headache (adverse event), Grade ≥3 (patients; JDQ443 all patients (N = 39)): 0 n
- Lipase increased (adverse event), Grade ≥3 (patients; JDQ443 all patients (N = 39)): 0 n
- Musculoskeletal stiffness (adverse event), Grade ≥3 (patients; JDQ443 all patients (N = 39)): 0 n
- Nausea (adverse event), Grade ≥3 (patients; JDQ443 all patients (N = 39)): 0 n
- Neuropathy peripheral (adverse event), Grade ≥3 (patients; JDQ443 all patients (N = 39)): 0 n
- Number of patients with at least one event, Grade ≥3 (patients; JDQ443 all patients (N = 39)): 5 n
- Pruritus (adverse event), Grade ≥3 (patients; JDQ443 all patients (N = 39)): 0 n
- Rash (maculopapular) (adverse event), Grade ≥3 (patients; JDQ443 all patients (N = 39)): 0 n
- Rash (pustular) (adverse event), Grade ≥3 (patients; JDQ443 all patients (N = 39)): 0 n
- Vomiting (adverse event), All grades (patients; JDQ443 all patients (N = 39)): 5 n
- Vomiting (adverse event), Grade ≥3 (patients; JDQ443 all patients (N = 39)): 0 n
- dose limiting toxicity (DLT) (patients; patient treated at 300 mg BID): one DLT (Grade 3 fatigue)
- treatment-related serious AE (patients; patient treated at 300 mg BID): one treatment-related serious AE (Grade 3 photosensitivity reaction)
- inhibition of cellular viability ([1]; KRASG12C H95Q double mutant, 3-day proliferation assay): potently inhibiting
- GI50 ([1]; Mus musculus, BaF3, KRAS G12C H95Q, 72 hours, CellTiter-Glo, read-out: GI50 +/− standard deviation (STDEV)): 570 nM
- Cmax [2]: 5270 ng/mL
- Tmax [2]: 3.2 h
- AUC(0-t) ([2]; read-out: AUC0-24 h): 55700 ng·h/mL
- effect on tumor growth [3]: deep tumor regression for approximately two and a half weeks, followed by tumor relapse
- anti-tumor response [4]: moderate anti-tumor response in a few models
